Laboratory results taken from patent US10059688B2, “Protein tyrosine kinase modulators and methods of use” (BETTA PHARMACEUTICALS CO., LTD., priority 2013, dated 2018).

Legend:
Assay in all cases: Kinase assay, single dose inhibition (Millipore, 33P-ATP filter binding)
Assay type in all cases: biochemical
Conditions in all cases: 0.1 μM test compound, 10 μM ATP; remaining activity relative to DMSO control = 100%
EGFR (T790M, L858R) (h) = EGFR (T790M, L858R) (h) (Homo sapiens (Human), UniProt P00533, L858R/T790M)
EGFR (h) = EGFR (h) (Homo sapiens (Human), UniProt P00533)
EGFR (T790M) (h) = EGFR (T790M) (h) (Homo sapiens (Human), UniProt P00533, T790M)
Protocol: (§1) Assay conditions included 10 μM ATP and 100 nM test compounds.
(§2) All reactions are initiated by the addition of the MgATP mix. After incubation for 40 minutes at room temperature, the reaction is stopped by the addition of 3% phosphoric acid solution. 10 μL of the reaction is then spotted onto a P30 filtermat and washed three times for 5 minutes in 75 mM phosphoric acid and once in methanol prior to drying and scintillation counting. This assay is performed by Millipore. The experiment is carried out in duplicate. The value for the control sample (DMSO) was set to 100%, and the values for the compound-treated samples were expressed as activity relative to the control sample.

EGFR (L858R) (h) = EGFR (L858R) (h) (Homo sapiens (Human), UniProt P00533, L858R)
Protocol: as §1, §2

ALK (h) = ALK (h) (Homo sapiens (Human), UniProt Q9UM73)
ALK (h), sequence (Q9UM73 19-1620): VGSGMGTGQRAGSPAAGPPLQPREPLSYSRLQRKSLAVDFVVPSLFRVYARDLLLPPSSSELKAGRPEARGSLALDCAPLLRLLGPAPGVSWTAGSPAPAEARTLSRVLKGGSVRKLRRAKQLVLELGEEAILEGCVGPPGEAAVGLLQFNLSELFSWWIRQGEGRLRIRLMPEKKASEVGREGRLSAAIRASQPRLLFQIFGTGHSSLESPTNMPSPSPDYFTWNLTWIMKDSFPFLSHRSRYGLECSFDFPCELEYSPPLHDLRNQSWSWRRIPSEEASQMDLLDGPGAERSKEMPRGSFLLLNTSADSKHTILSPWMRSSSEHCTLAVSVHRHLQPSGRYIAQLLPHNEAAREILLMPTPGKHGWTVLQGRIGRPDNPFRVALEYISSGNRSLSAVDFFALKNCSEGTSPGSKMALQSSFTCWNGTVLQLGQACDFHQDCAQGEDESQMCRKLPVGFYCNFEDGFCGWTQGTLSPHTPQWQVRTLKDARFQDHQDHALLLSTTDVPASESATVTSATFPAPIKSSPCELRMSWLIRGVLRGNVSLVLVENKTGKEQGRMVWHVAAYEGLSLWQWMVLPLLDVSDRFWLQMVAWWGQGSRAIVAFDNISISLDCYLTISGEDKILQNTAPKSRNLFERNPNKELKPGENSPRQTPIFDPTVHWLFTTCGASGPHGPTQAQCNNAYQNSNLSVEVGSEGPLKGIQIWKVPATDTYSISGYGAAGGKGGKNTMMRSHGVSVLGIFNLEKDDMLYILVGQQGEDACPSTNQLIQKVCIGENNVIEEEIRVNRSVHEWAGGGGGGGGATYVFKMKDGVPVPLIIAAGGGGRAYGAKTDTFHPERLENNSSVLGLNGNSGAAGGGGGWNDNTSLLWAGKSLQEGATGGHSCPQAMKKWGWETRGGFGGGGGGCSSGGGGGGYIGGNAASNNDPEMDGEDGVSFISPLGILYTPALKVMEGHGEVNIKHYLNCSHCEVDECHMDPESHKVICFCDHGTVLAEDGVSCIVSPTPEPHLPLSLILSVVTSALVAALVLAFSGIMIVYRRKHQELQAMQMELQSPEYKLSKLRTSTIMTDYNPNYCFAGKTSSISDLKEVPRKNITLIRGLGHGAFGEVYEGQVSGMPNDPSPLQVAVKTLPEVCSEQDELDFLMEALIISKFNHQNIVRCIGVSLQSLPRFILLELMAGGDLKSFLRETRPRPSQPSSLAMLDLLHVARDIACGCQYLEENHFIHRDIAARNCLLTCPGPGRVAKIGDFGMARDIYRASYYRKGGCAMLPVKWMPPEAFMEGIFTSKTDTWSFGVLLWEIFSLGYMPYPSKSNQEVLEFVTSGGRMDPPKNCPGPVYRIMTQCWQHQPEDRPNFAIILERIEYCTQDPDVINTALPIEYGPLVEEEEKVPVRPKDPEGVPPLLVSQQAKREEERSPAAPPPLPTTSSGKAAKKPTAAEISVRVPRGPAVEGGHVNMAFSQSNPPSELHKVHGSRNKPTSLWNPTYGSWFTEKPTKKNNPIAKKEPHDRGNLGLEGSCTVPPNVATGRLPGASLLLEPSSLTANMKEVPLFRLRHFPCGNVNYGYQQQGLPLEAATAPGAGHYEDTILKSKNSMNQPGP

Row | Molecule | Activity (control) % EGFR (T790M, L858R) (h) (EGFR (T790M, L858R) (h)) | Activity (control) % EGFR (h) (EGFR (h)) | Activity (control) % EGFR (T790M) (h) (EGFR (T790M) (h)) | Activity (control) % EGFR (L858R) (h) (EGFR (L858R) (h)) | Activity (control) % ALK (h) (ALK (h))
1 | C=CC(=O)Nc1cc(Nc2ncc(C)c(Nc3ccccc3C(=O)C(=O)N(C)C)n2)ccc1OC [Example 101, N-(5-(4-(2-(2-(dimethylamino)-2-oxoacetyl)phenylamino)-5-methylpyrimidin-2-ylamino)-2-methoxyphenyl)acrylamide] | 41% | 110% | 83% | 94% | 35%
2 | COc1cc(Nc2ncc(Cl)c(Nc3ccccc3C(=O)C(=O)N(C)C)n2)ccc1N1CCOCC1 [Example 117, 2-(2-(5-chloro-2-(3-methoxy-4-morpholinophenylamino)pyrimidin-4-ylamino)phenyl)-N,N-dimethyl-2-oxoacetamide] | 14% | 113% | 65% | 88% | 8%
3 | CN(C)C/C=C/C(=O)Nc1cccc(Nc2ncc(Cl)c(Nc3ccccc3C(=O)C(=O)N(C)C)n2)c1 [Example 114, (E)-N-(3-(5-chloro-4-(2-(2-(dimethylamino)-2-oxoacetyl)phenylamino)pyrimidin-2-ylamino)phenyl)-4-(dimethylamino)but-2-enamide] | 8% | 91% | 47% | 52% | 10%
4 | C=C(CN(C)C)C(=O)Nc1ccc(OC)c(Nc2ncc(Cl)c(Nc3ccccc3C(=O)C(=O)N(C)C)n2)c1 [Example 78, N-(3-(5-chloro-4-(2-(2-(dimethylamino)-2-oxoactyl)phenylamino)pyrimidin-2-ylamino)-4-methoxyphenyl)-2-((dimethylamino)methyl)acrylamide] | 3% | 68% | 2% | 37% | 36%
5 | C=C(CN1CCCCC1)C(=O)Nc1cccc(Nc2ncc(Cl)c(Nc3ccccc3C(=O)C(=O)N(C)C)n2)c1 [Example 113, N-(3-(5-chloro-4-(2-(2-(dimethylamino)-2-oxoacetyl)phenylamino)pyrimidin-2-ylamino)phenyl)-2-(piperidin-1-ylmethyl)acrylamide] | 3% | 88% | 16% | 78% | 19%
6 | N-(5-(5-chloro-4-(2-(2-(dimethylamino)-2-oxoactyl)phenylamino)pyrimidin-2-ylamino)-2-(tetrahydrofuran-3-yloxy)phenyl)acrylamide [Example 124] | 20% | 109% | 78% | 100% | 16%
7 | CN(C)C(=O)C(=O)c1ccccc1Nc1nc(Nc2ccc(F)c(NC(=O)CCN3CCOCC3)c2)ncc1Cl [Example 123, N-(5-(5-chloro-4-(2-(2-(dimethylamino)-2-oxoactyl)phenylamino)pyrimidin-2-ylamino)-2-fluorophenyl)-3-morpholinopropanamide] | 31% | 115% | 84% | 94% | 17%
8 | C=CC(=O)Nc1ccc(N2CCN(C)CC2)c(Nc2ncc(Cl)c(Nc3ccccc3C(=O)C(=O)N(C)C)n2)c1 [Example 135, N-(3-(5-chloro-4-(2-(2-(dimethylamino)-2-oxoacetyl)phenylamino)pyrimidin-2-ylamino)-4-(4-methylpiperazin-1-yl)phenyl)acrylamide] | 95% | 106% | 96% | 103% | 80%
